PMC3006138, “Fexinidazole – A New Oral Nitroimidazole Drug Candidate Entering Clinical Development for the Treatment of Sleeping Sickness” (PLoS Neglected Tropical Diseases, 2010)
Values joined by “and” are separate entries in the source; they are usually repeats but may differ in a detail not shown here. Equal entries are not always repeated.

Experiments:
hERG = hERG (Homo sapiens, UniProt Q12809); assay: hERG tail current, patch clamp in HEK 293 cells; details: for Residual Current (% of control): 37°C
Chain of hERG (Q12809 whole entry): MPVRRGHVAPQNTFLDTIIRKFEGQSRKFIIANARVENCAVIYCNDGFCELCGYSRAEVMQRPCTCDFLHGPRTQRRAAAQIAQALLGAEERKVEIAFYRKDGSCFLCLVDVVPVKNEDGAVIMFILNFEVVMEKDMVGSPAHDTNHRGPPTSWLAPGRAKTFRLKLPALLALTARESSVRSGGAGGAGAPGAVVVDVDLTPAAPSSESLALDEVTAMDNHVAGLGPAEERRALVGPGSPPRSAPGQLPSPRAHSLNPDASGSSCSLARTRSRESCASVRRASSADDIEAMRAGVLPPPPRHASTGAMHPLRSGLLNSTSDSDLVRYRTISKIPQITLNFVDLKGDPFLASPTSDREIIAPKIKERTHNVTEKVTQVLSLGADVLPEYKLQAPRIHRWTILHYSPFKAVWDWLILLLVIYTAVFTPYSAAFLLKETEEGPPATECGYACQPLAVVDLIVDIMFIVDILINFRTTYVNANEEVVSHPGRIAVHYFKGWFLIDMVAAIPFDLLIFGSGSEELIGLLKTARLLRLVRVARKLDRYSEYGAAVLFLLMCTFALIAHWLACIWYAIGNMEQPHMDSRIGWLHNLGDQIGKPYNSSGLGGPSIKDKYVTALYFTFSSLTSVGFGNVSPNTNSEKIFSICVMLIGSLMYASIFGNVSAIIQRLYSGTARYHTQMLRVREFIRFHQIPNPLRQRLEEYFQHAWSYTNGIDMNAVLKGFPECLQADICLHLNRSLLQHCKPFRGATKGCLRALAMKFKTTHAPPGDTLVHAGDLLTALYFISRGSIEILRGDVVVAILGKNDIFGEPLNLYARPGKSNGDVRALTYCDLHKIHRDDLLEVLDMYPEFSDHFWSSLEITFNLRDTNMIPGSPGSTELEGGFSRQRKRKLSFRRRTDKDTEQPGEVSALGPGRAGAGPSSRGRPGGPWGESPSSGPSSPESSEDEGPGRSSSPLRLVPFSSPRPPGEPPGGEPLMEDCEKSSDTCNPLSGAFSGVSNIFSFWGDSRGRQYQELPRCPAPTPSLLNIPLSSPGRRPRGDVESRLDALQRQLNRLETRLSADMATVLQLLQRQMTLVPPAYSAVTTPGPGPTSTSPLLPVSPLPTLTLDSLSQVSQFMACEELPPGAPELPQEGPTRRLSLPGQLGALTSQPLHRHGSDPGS
Description: Formulation and stored at 2-4°C when not in use. When in use Tyrode solution was stored at
CaCl2, 1 MgCl2, 5.5 glucose and 5 HEPES. During the patch-clamp experiments the Tyrode
4.2.4. Storage and Formulation of Internal Solution
The internal solution was stored frozen at – 20°C until the day of use. The composition of
the internal solution was (in mM): 110 K+- aspartate, 23 KCl, 3 MgCl2, 1 EGTA, 5 HEPES,
0.4 GTP (Na+ salt), 5 ATP (Na+ salt), 5 creatine phosphate, 0.4 CaCl2 (pH 7.3 with KOH).
4.3.1. Source and Maintenance of hERG Transfected Cells
HEK 293 cells stably transfected with hERG cDNA, supplied by bSys GmbH Switzerland,
continuously maintained and passaged in sterile culture flasks containing a mixture of
Dulbecco’s modified Eagle’s medium and nutrient mixture F-12 supplemented with 10%
foetal bovine serum, 0.9% Penicillin/Streptomycin solution, Hygromycin B and Blasticidin.
HEK 293 cells were passaged at a confluence of about 80%. For electrophysiology studies,
the cells were seeded in Petri dishes (35x10 mm), with culture medium containing
tetracycline to activate channel expression, at a density that enables isolated cells to be
selected for patch-clamping. The dishes were stored in a humidified, gassed (5% CO2)
Petri dishes containing the cells to be used for electrophysiological studies were mounted on
the stage of an inverted microscope and were superfused with Tyrode solution. Membrane
currents were recorded (Axopatch 200B, Axon Instruments) in the whole cell configuration
by using suction pipettes (Harvard apparatus, 1.5 mm o.d. x 0.86 mm i.d.) with tip resistance
in the range of 2.5-3.5 MΩ. Gigaohm seals were formed between the patch electrodes and
individual cells. If the quality of the seal was judged to be poor, the electrode was replaced
and the process repeated with a different cell. Once a stable patch was achieved, recording
was commenced in voltage-clamp mode, with the cell initially clamped at –80 mV. Series
resistance and capacitance were compensated to about 70% of their initial value. Cells were
perfused through a microperfusion system allowing for solution changes to occur within
approximately one second. Computer software (pClamp version 8.0; Axon Instruments) was
used to generate voltage clamp protocols, acquire data and analyze current traces. The data
were stored on a computer hard disk for later analysis. Experiments were performed at a
temperature in the recording chamber of 37 ± 1°C, which was maintained with a temperature
Cells stably expressing hERG were held at –80 mV. Onset and steady state block of the
hERG channel current (IKr) due to the test items were monitored using a pulse pattern with
fixed amplitudes (first depolarization: -50 mV for 500 ms; second depolarization: +20 mV
for 2 seconds; hyperpolarization: -50 mV for 7 seconds). This pulse pattern was repeated
every 15 seconds, and current amplitude at the onset of the second step to –50 mV (“peak
tail current”) was monitored until a steady state was obtained. Recordings were acquired at
the sampling interval of 2 kHz and low-pass filtered at 1 kHz. The steady state peak tail
current was monitored and recorded in vehicle solution and then the test item was applied to
the bath solution. At the end the reference item E4031 was applied to block 100% of the
current for determination of the current “leak” response to the stimulation protocol. The
current amplitude was continually monitored through the onset of the voltage step to –50
mV until a new steady state level of current was achieved. Each cell was exposed to a single
test substance concentration.
4.5. Statistical Analysis
For each cell the effect of the test items was ascertained by calculating the residual current as
percentage of control (% control). All data were corrected for “leak” current by subtracting
Each value represents the average current
recorded from 3 sequential voltage pulses. Data from individual cells was collected and the

Lipophilicity (logD) = type: physicochemical; details: pH 7.4
[1] = Mouse pharmacokinetics after 5-day oral dosing; details: for AUC0-tlast / AUC0-∞: fexinidazole 200 mg/kg/day po, Day 5
[2] = system: T. b. rhodesiense (STIB 900); assay: In vitro trypanocidal assay (Alamar Blue); type: cell-based, Trypanosoma brucei rhodesiense; details: Trypanosoma brucei, 72 h; read-out: IC50
Description: 10 µL of Alamar Blue was added for the final 3 h to determine viability. […] The IC50 values were calculated from the sigmoidal inhibition curves. For cytotoxicity, 4×10^4/mL L-6 rat skeletal myoblast cells were used, and incubations and assessments carried out as above.

monkey hepatocytes = assay: Hepatocyte intrinsic clearance and metabolite profile; type: in vitro ADME, cynomolgus monkey; details: fexinidazole 10 µM
Description: Fexinidazole was incubated with cryopreserved hepatocytes from male CD-1 mice, male Sprague Dawley rats, male beagle dogs, male cynomolgus monkeys, and from pooled white or African-American human donor samples (purchased commercially), at concentrations of 1 µM and 10 µM. […] The incubated samples were analyzed by LC-MS after extraction into acetonitrile.
A quality control analysis of fexinidazole was performed via 1H-NMR in DMSO and LC- […]
provided by the Swiss Tropical Institute (Basel, Switzerland).
Reagents and solvents were of analytical grade and obtained from Sigma-Aldrich (St. Louis, […]
Cryopreserved hepatocytes from the male CD1 mouse, lot CSI; male Sprague Dawley rat, lot LPL; male beagle dog, lot BWX; male cynomolgus monkey, lot EHH; and pooled human samples, lot MJI, were purchased from In Vitro Technologies Inc (Baltimore, Maryland, […]
5.4. In vitro Incubations
On the day of the experiment a 10 mM stock solution of fexinidazole in DMSO was prepared and, within 3 hours, aliquots of this freshly prepared solution, after suitable dilution, were added to the incubation matrix, to reach fexinidazole final concentrations of 1 and 10 µM. The final percentage of DMSO was 0.01% in the incubation samples for the […]
On the day of experiment, the cryopreserved hepatocytes were thawed following the detailed instructions provided by the supplier.
The number of viable cells was determined using a Trypan Blue exclusion method.
5.4.1. Intrinsic Clearance Study […]
µM with mouse, rat, dog, monkey and human hepatocytes (300000 cells/mL for the mouse and 1 million cells/mL for the other species) in a final incubation volume of 0.75 mL […]
Incubations were performed in duplicate in a 48-well plate under shaking. Sampling was performed using an automatic liquid handling system (Multiprobe II EX, Packard). At 0, 1, 5, 10, 15, 20, 30, 60 and 120 minutes, 50 µL aliquots of the incubates were taken, then 80 µL of ice-cold acetonitrile and 20 µL of 1 µM warfarin in acetonitrile (internal standard) were added, and samples centrifuged at 2000 rpm for 20 min. The supernatant was analyzed by LC-MS/MS. […]
the medium alone at t = 0 and 120 minutes.
For the determination of phase I and phase II activity of hepatocytes, 7-ethoxycoumarin (7-EC) 1 µM, and 7-hydroxycoumarin (7-HC) 30 µM were used as positive controls and incubated under the same conditions as fexinidazole. Aliquots of incubates were taken at 0, 10, 20, 30, 60 and 120 minutes and processed as fexinidazole samples.
5.4.2. Metabolite Profile Study
For metabolite profiling, fexinidazole was incubated at a concentration of 10 µM with mouse, rat, dog, monkey and human hepatocytes (300000 cells/mL for the mouse and 1 million cells/mL for the other species) in a final incubation volume of 2 mL Leibovitz L-15 […]
Aliquots of the incubation samples were taken at t = 0, 30 and 120 minutes; the metabolism was stopped by the addition of an equal volume of cold acetonitrile and the samples centrifuged at 1500 rpm for 20 min. The supernatant was stored at -20°C until analysis. Control incubations were performed with the compound in the medium alone […]
5.5. Analysis of Samples for Intrinsic Clearance Determination
The analysis of the samples for intrinsic clearance determination was performed by an LC-MS/MS method, using the following conditions:
HPLC Equipment and Conditions
HPLC system Agilent 1100 binary pump (Agilent, Palo Alto, USA)
Autosampler CTC Pal (Alfatech, San Jose, USA)
Analytical column Guard Column SB-C8 4.6 x 12.5 mm, 5 µm (Zorbax)
Column temperature ambient
Mobile phase A 10 mM ammonium formate pH 4.0: acetonitrile (95:5, v:v)
Mobile phase B 10 mM ammonium formate pH 4.0: acetonitrile (5:95, v:v) […]
Gradient conditions Step Total time (min) flow (µL/min) %A % B […]
MS Equipment and Conditions
Mass spectrometer API 4000 Triple Quadrupole (MDS-Sciex, Toronto, […]
Source Turbo Ion Spray (TIS)
Ion mode Positive for fexinidazole and 7-EC.
Negative for 7-HC, 7-HC sulphate and 7-HC glucuronide.

[3] = male, NMRI, mouse, plasma, po, 200 mg/kg/day

Q: Which results are given for CSc1ccc(OCc2ncc([N+](=O)[O-])n2C)cc1 [Fexinidazole, 1-methyl-2-((p-(methylthio)phenoxy)methyl)-5-nitroimidazole]?
A: Residual Current (% of control) (hERG; 1 µM): 100.12±4.29%; Residual Current (% of control) (hERG; 5 µM): 94.86±1.06%; Residual Current (% of control) (hERG; 30 µM): 88.97±8.21%; effect on hERG peak tail current (hERG; 1, 5 and 30 µM): judged not to affect hERG peak tail current; logD (Lipophilicity (logD)): 2.83; AUC(0-t) [1, 3]: 1.53 ± 0.348 µg·h/mL; Cmax [1, 3]: 457 ± 179 ng/mL; Tmax [1, 3]: 0.833 ± 0.289 h; half-life [1, 3]: 2.76 ± 1.26 h; IC50 [2]: 0.48 µg/mL to 0.82 µg/mL and 1.71 µM to 2.93 µM; % of total drug related material (monkey hepatocytes; t=0): 53%

Q: Which “Residual Current (% of control)” value (hERG; 1 µM) does the source give for Cn1c([N+](=O)[O-])cnc1COc1ccc(S(C)(=O)=O)cc1 [Fexinidazole sulfone] here?
A: Its value is 96.16±8.15%.

Q: What about the “Residual Current (% of control)” value (hERG; 5 µM) of the same compound?
A: The value was 90.76±3.84%.

Q: And the “decrease on hERG peak tail current” value (hERG; 30 µM, 9.34 µg/mL)?
A: The value was 33%.

Q: What about the “Residual Current (% of control)” value (hERG; 30 µM) of the same compound?
A: Its value is 67.41±2.24%.

Q: And the “effect on hERG peak tail current” value (hERG; 1 or 5 µM)?
A: Its value is “no effect”.

Q: And the logD (Lipophilicity (logD))?
A: The logD was 0.74.

Q: And the AUC0-tlast [1]?
A: Its AUC0-tlast is 1050 µg·h/mL.

Q: What about the “AUC0-∞” value [1] of the same compound?
A: The value was 1060 µg·h/mL.

Q: What about the Cmax [1, 3] of the same compound?
A: Its Cmax is 77600 ng/mL.

Q: What about the Tmax [1, 3] of the same compound?
A: The Tmax was 3 h.

Q: And the half-life [1, 3]?
A: Its half-life is 2.75 h.

Q: And the IC50 [2]?
A: The IC50 was 0.35 µg/mL to 0.4 µg/mL and 1.14 µM to 1.3 µM.

Q: What about the “% of total drug related material” value (monkey hepatocytes; 30 min) of the same compound?
A: The value was 40%.

Q: What about the “% of total drug related material” value (monkey hepatocytes; 120 min) of the same compound?
A: Its value is 58%.

Q: For Cn1c([N+](=O)[O-])cnc1COc1ccc([S+](C)[O-])cc1 (stereo not drawn) [Fexinidazole sulfoxide], which “Residual Current (% of control)” value (hERG; 1 µM) is on record?
A: Its value is 87.06±0.92%.

Q: What about the “Residual Current (% of control)” value (hERG; 5 µM) of the same compound?
A: Its value is 101.39±8.64%.

Q: What about the “Residual Current (% of control)” value (hERG; 30 µM) of the same compound?
A: Its value is 98.04±1.52%.

Q: And the “effect on hERG peak tail current” value (hERG; 1, 5 and 30 µM)?
A: The value was “judged not to affect hERG peak tail current”.

Q: What about the logD (Lipophilicity (logD)) of the same compound?
A: The logD was 0.52.

Q: What about the AUC0-tlast [1] of the same compound?
A: Its AUC0-tlast is 161 µg·h/mL.

Q: And the “AUC0-∞” value [1]?
A: The value was 197 µg·h/mL.

Q: What about the Cmax [1, 3] of the same compound?
A: Its Cmax is 33600 ng/mL.

Q: What about the Tmax [1, 3] of the same compound?
A: Its Tmax is 0.833 h.

Q: What about the half-life [1, 3] of the same compound?
A: The half-life was 4.31 h.

Q: And the IC50 [2]?
A: Its IC50 is 0.41 µg/mL to 0.49 µg/mL and 1.33 µM to 1.65 µM.

Q: What about the “% of total drug related material” value (monkey hepatocytes; 30 min) of the same compound?
A: The value was 60%.

Q: And the “% of total drug related material” value (monkey hepatocytes; 120 min)?
A: The value was 42%.

Q: What about the “% of total drug related material” value (monkey hepatocytes; t=0) of the same compound?
A: The value was 47%.
